Measured values reported in US20220364184A1, “COMPOSITIONS AND METHODS FOR TREATMENT OF A POOR PROGNOSIS SUBTYPE OF COLORECTAL CANCER” (DANA-FARBER CANCER INSTITUTE, INC., priority 2019, published 2022).
Entries after “also recorded” stand apart in the source; their conditions may differ.

Experiments:
RKO cells [1] = assay: Wound healing (scratch) assay with calcium wave imaging; type: cell-based, human; details: for display of primary and secondary calcium waves after scratching: FIG. 19E-F, verapamil 500 nM
Description: Wild-type or BCL9 knockout cells were grown in 6-well plates or Nunc™ Glass Bottom Dishes (150680, ThermoFisher®) for 24 hrs until cells reached 90% confluency. A 1 ml pipette tip was used to scratch the monolayer of cells across the center of each well. The cells were imaged at 0 and 24 hours after scratching. To investigate the effect of BCL9 on calcium waves (FIG. 5H), cells were cultured in glass-bottomed 96-well plates for 24 hrs until they reached 90% confluency. […] A 200 μl pipette tip was used to scratch the cell monolayer from the top left to the bottom right corner of the well. At various times after the scratch was made, cells were fixed with 4% paraformaldehyde for 15 minutes at room temperature. Immunofluorescence was subsequently used to identify the location of BCL9 (see immunofluorescence method section for more detail). The wound edge in the center of the well was defined as “adjacent” and the area in the top right corner was defined as “distance” (FIG. 4H).
To trace the calcium transient in real time, GCaMP5G (#31788, Addgene®) was transfected into wild-type or BCL9 knockout RKO and Colo320 cell lines. 2 mg/ml neomycin was added to the cell culture medium 48 hrs after transfection to generate cell lines with stable GCaMP5 expression and removed one week prior to the initiation of experiment. Calcium transients were captured by live-cell imaging using a confocal microscope. […] Calcium measurements were normalized to background fluorescence and the relative change in calcium (F(t)) over time was calculated by the formula: […]
where F0 was defined as the average intensity of the 20% lowest grey values in a region of interest (ROI), F was defined as the normalized grey values of ROI in time point t. Global synchronicity was calculated by cross correlation method in FluoroSNNAP (seas.upenn.edu/˜molneuro/fluorosnnap.html). The frequency spectrum was calculated by fast Fourier transform (Uhlen, P. (2004). Sci. STKE 2004, p 115), the time difference between each sample is 0.5 s.

RKO cells [2] = assay: Live-cell calcium imaging of spontaneous calcium transients (GCaMP5); type: cell-based, human; details: for spontaneous calcium transients: FIG. 4C; for propagation of calcium transients: FIG. 5E
Description: 2 mg/ml neomycin was added to the cell culture medium 48 hrs after transfection to generate cell lines with stable GCaMP5 expression and removed one week prior to the initiation of experiment. Calcium transients were captured by live-cell imaging using a confocal microscope. Time lapse imaging was setup so that an image was captured every 0.5 s for 30 minutes, with an exposure time of 0.5 s. Calcium measurements were normalized to background fluorescence and the relative change in calcium (F(t)) over time was calculated by the formula: […]
where F0 was defined as the average intensity of the 20% lowest grey values in a region of interest (ROI), F was defined as the normalized grey values of ROI in time point t. Global synchronicity was calculated by cross correlation method in FluoroSNNAP (seas.upenn.edu/˜molneuro/fluorosnnap.html).

RKO cells [3] = assay: In vivo mouse xenograft model (RKO-luciferase, intraperitoneal)
Description: A total of 4×10^6 wild-type or BCL9 knockout RKO cells stably transduced with a reporter expressing Luciferase were injected intraperitoneally into CB17.Cg-PrkdcscidLystbg-J/Crl (Beige) mice (n=7 per group), and tumor burden was monitored by whole-body imaging using Xenogen system every week for 4 weeks, starting one day after injection of cells. After last imaging, all mice were euthanized and all tumor nodules identified in the peritoneal cavity were dissected and processed for histological and immunohistochemical analysis. To quantify β-catenin and Ki-67 stains serial consecutive sections were scanned using Vectra 2 Intelligent Slide Analysis system; percentage of positive cells (Ki-67, CD163, CD31, or αSMA) or areas (β-catenin) were assessed using inform Cell Analysis software (PerkinElmer®). P-values were calculated using unpaired Student's t-test. Propranolol hydrochloride (Millapore-Sigma®) was added to the drinking water at a concentration of 0.5 g/L on the injection day. Drug solution was renewed every 2 days.
TMA sections (from Oncology Pathology, Dana Farber Cancer Institute) were pre-heated at 65 degrees for 20 mins and then deparaffined by performing the following washing steps: xylene 3×5 mins, 100% ethanol 5 mins, 95% ethanol 5 mins, 75% ethanol 5 mins, 50% ethanol 5 mins, 25% ethanol 5 mins, and rinsed by cold water. Sections were subsequently heated in a microwave with antigen retrieval buffer (10 mM Tris Base, 1 mM EDTA Solution, 0.05% Tween 20, pH 9.0). Sections were washed twice with TBS plus 0.5% Triton X-100 (v/v) and blocked with 5% BSA for 1 hr at room temperature. Sections were incubated overnight with the following antibodies at 4 degrees: BCL9 (ab37305, Abcam®), FAP (AF3715, R&D), β-catenin (610154, BD Transduction Laboratories), SYP (PA0299, Lecia), PDGFB (ab23914, Abcam®), C3 (HPA003563, Millapore-Sigma®), RGS4 (sc-398348, Santa Cruz®), CD163 (182422, Abcam®), CD31 (77699, Cell Signaling®), αSMA (19245, Cell Signaling®), or Axin2 (#2151, Cell Signaling®). The sections were washed three times before incubation with secondary antibody for 2 hours at room temperature. The sections were then washed three times before signal amplification with HRP polymer or fluorescence. ImageJ2 software was used to carry out semi-quantitative analysis of the staining intensities, which ranged from 0 (negative) to 3 (strong staining). Subsequently the H-score was calculated using the following formula;

[4] = test system: RKO, Colo320, SW620, LS174T, DLD-1 cells; assay: Cell viability assay of CRC cell lines; details: Colo320, and SW620 more than LS174T or DLD-1 cells, increased concentrations, FIG. 20C
[5] = test system: RGS4, CACNA2D1, ADRB1 mRNA; assay: mRNA expression by RNA-seq / qRT-PCR; type: cell-based, human; details: both wild-type and BCL9 knockout RKO cells, qRT-PCR, FIG. 17A
Description: RNA was extracted from wild type and BCL9 knockout RKO cells with or without Poly I:C treatment (1 μg/ml) and subsequently purified using the TURBO DNA-free™ Kit (AM1907, invitrogen) to remove any residual DNA. An RNA library was prepared using the ribosome RNA removing method and sequenced with a 150 bp paired-end protocol in the Center for Cancer Computational Biology at the Dana Farber Cancer Institute (PRJNA554110). After quality control (QC) analysis was performed using fastQC, the first 10 bases were trimmed for each read. STAR software was used to map the readings to the human genome (hg19) and duplicates were removed using Picard. HTSeq was used to evaluate the gene expression levels by the count number for each gene and were subsequently annotated using the Ensemble database. Gene differential analysis was then applied to the expression profiling table using R package edgeR. For further analysis, the difference in exon usage between different conditions was calculated and R package DEXSeq was used to find differences between them.

B-cell lymphoma 9 (BCL9) = molecular target: T1, B-cell lymphoma 9 (BCL9) (human, UniProt O00512 1-1426); assay: co-IP with anti-β-catenin antibody, untreated and poly I:C treated Colo320 cells
T1 construct: Endogenous protein in nuclear lysates of human CRC cell lines (RKO, Colo320, SW620, LS174T, DLD-1)
T1 sequence: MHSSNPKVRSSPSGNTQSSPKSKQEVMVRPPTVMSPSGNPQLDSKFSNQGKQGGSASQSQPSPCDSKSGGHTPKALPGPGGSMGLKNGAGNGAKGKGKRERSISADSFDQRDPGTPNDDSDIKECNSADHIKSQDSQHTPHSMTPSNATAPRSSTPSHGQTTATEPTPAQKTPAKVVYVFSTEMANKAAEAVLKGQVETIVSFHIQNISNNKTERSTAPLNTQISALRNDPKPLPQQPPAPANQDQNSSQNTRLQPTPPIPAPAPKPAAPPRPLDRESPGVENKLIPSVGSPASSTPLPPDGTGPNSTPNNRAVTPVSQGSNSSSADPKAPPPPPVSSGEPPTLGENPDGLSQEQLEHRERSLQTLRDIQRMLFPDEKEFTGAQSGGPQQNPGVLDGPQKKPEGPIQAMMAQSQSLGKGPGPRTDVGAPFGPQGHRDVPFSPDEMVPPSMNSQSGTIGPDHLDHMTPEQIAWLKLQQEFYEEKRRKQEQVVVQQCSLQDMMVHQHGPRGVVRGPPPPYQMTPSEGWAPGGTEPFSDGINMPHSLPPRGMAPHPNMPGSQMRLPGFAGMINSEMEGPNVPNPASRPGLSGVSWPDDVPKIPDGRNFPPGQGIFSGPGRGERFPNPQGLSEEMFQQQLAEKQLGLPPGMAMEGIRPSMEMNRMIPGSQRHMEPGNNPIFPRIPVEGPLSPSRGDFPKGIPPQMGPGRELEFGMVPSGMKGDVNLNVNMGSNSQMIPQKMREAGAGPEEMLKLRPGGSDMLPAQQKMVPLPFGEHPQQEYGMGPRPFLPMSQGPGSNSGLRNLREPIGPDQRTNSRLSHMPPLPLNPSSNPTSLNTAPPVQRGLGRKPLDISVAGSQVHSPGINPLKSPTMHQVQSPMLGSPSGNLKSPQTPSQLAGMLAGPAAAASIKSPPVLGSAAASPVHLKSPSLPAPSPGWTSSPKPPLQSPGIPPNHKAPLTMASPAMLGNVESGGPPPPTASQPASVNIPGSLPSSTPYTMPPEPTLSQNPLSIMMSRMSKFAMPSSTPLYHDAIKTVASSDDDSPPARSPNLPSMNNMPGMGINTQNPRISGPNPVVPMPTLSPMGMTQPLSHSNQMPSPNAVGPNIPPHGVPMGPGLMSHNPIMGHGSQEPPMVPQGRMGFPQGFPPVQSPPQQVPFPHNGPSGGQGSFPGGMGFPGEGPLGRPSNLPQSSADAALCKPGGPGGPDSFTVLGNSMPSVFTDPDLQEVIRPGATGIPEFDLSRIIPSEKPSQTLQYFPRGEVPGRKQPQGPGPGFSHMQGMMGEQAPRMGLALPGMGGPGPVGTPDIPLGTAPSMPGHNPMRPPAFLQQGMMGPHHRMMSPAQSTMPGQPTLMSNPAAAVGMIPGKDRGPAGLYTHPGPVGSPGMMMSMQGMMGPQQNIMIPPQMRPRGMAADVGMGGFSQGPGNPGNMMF

With `O=C(O)CN(CCN(CC(=O)O)CC(=O)O)CC(=O)O` [EDTA, ethylene diamine tetra-acetic acid] the “display of primary and secondary calcium waves after scratching” value (RKO cells [1]) was “disappeared; also recorded: blocked” and the spontaneous calcium transients (RKO cells [2]; RKO cells) was “disappeared”.

`CC(C)NCC(O)COc1cccc2ccccc12` (stereo not drawn) [propranolol, 2-propanol, 1-[(1-methylethyl)amino]-3-(1-naphthalenyloxy)] was tested, and the “number of endothelial cells within tumor microenvironment (CD31)” value (RKO cells [3]; RKO xenograft, FIG. 6H-I) was “marked reduction”, the “number of mouse derived M2 macrophages within tumor microenvironment (CD163)” value (RKO cells [3]; RKO xenograft, FIG. 6H-I) was “marked reduction” and the “number of myofibroblast cells within tumor microenvironment (αSMA)” value (RKO cells [3]; RKO xenograft, FIG. 6H-I) was “not”. The “expression of Axin2 in xenograft tumors” value (RKO cells [3]; control vs treated groups) was “did not display differences”, the “mice that had died with extensive tumor burden” value (RKO cells [3]; three weeks after RKO cell injection, 0.5 g/L in drinking water, n=7) was “none” and the “tumor burden (whole-body imaging)” value (RKO cells [3]; three weeks post tumor injection, 0.5 g/L in drinking water) was “disappeared in most”. The “viability of CRC cell lines” value [4] was “significantly reduced”, the “calcium transient activation after scratching” value (RKO cells [1]; FIG. 5F) was “inhibited calcium transients only in a subset of cells; also recorded: very few of them were activated” and the “amplitude, frequency, and synchronicity of spontaneous calcium waves” value (RKO cells [2]; RKO cells, FIG. 20B) was “reduced”.

In the case of `COc1ccc(CCN(C)CCCC(C#N)(c2ccc(OC)c(OC)c2)C(C)C)cc1OC` (stereo not drawn) [verapamil, Benzeneacetonitrile, α-[3-[[2-(3,4-dimethoxyphenyl)ethyl]methylamino]propyl]-3,4-dimethoxy-α-(1-methylethyl)], the “viability of CRC cell lines” value [4] is reported as “significantly reduced”, the “display of primary and secondary calcium waves after scratching” value (RKO cells [1]) is reported as “disappeared; also recorded: blocked” and the spontaneous calcium transients (RKO cells [2]; RKO cells) is reported as “disappeared”.

`CC(C)(C)NCC(O)c1cc(O)cc(O)c1` (stereo not drawn) [Terbutaline] was tested, and the “propagation of calcium transients” value (RKO cells [2]; BCL9 knockout RKO cells) was “not” and the “propagation of calcium transients” value (RKO cells [2]; wild-type RKO cells) was “induced”.

`NCCc1ccc(O)c(O)c1` [dopamine] was tested, and the “expression of RGS4 and CACNA2D1 mRNAs” value [5] was “increased”.

B1: β-catenin (other, UniProt P35222 2-781, looked up)
chain: ATQADLMELDMAMEPDRKAAVSHWQQQSYLDSGIHSGATTTAPSLSGKGNPEEEDVDTSQVLYEWEQGFSQSFTQEQVADIDGQYAMTRAQRVRAAMFPETLDEGMQIPSTQFDAAHPTNVQRLAEPSQMLKHAVVNLINYQDDAELATRAIPELTKLLNDEDQVVVNKAAVMVHQLSKKEASRHAIMRSPQMVSAIVRTMQNTNDVETARCTAGTLHNLSHHREGLLAIFKSGGIPALVKMLGSPVDSVLFYAITTLHNLLLHQEGAKMAVRLAGGLQKMVALLNKTNVKFLAITTDCLQILAYGNQESKLIILASGGPQALVNIMRTYTYEKLLWTTSRVLKVLSVCSSNKPAIVEAGGMQALGLHLTDPSQRLVQNCLWTLRNLSDAATKQEGMEGLLGTLVQLLGSDDINVVTCAAGILSNLTCNNYKNKMMVCQVGGIEALVRTVLRAGDREDITEPAICALRHLTSRHQEAEMAQNAVRLHYGLPVVVKLLHPPSHWPLIKATVGLIRNLALCPANHAPLREQGAIPRLVQLLVRAHQDTQRRTSMGGTQQQFVEGVRMEEIVEGCTGALHILARDVHNRIVIRGLNTIPLFVQLLYSPIENIQRVAAGVLCELAQDKEAAEAIEAEGATAPLTELLHSRNEGVATYAAAVLFRMSEDKPQDYKKRLSVELTSSLFRTEPMAWNETADLGLDIGAQGEPLGYRQDDPSYRSFHSGGYGQDALGMDPMMEHEMGGHHPGADYPVDGLPDLGHAQDLMDGLPPGDSNQLAWFDTDL
notes: Endogenous protein in cell lysates; co-IP with anti-β-catenin (9562L, Cell Signaling) or anti-BCL9 antibody; also called B-catenin
B1: binds (B-cell lymphoma 9 (BCL9)).
